Converted amounts (≈) assume the structure as drawn. Counter-ions that a name gives are not always drawn.
Tests used:
Type in all cases: physicochemical
[1] = Gravimetric vapor sorption (GVS) hygroscopicity; conditions: for Crystalline form by XRPD post GVS analysis: exposure to humidity 0 to about 90% RH, about 25° C.
Experimental: Sorption isotherms were obtained using a Hiden Isochema moisture sorption analyser (model IGAsorp), controlled by IGAsorp Systems Software v6.50.48. The sample was maintained at a constant temperature (25° C.) by the instrument controls. The humidity was controlled by mixing streams of dry and wet nitrogen, with a total flow of 250 mL·min^−1. The instrument was verified for relative humidity content by measuring three calibrated Rotronic salt solutions (10-50-88%). The weight change of the sample was monitored as a function of humidity by a microbalance (accuracy+/−0.005 mg). A defined amount of sample was placed in a tared mesh stainless steel basket under ambient conditions. A full experimental cycle consisted of two scans (sorption and desorption) at a constant temperature (25° C.) and 10% RH intervals over a 10-90% range (90 minutes for each humidity level).
The hygroscopicity of the esylate, mesylate, HCl, and sulfate salts/co-crystals of Compound I formed via the first scale up process was analyzed. All hygroscopicity experiments covered a wide range of humidity (0 to about 90% relative humidity) and were performed at about 25° C. to assess behavior.

[2] = Solubility of Compound I Form I in various solvents
[3] = Kinetic solubility in FaSSIF; conditions: for Solubility (mg/mL) 1 h / Solubility (mg/mL) 2 h / Solubility (mg/mL) 4 h / Solubility (mg/mL) 24 h: 37° C.; for Solubility (mg/mL) 1 h: drug loading ~10 mg/mL as freebase; for pH 1 h / pH 2 h / pH 4 h / pH 24 h: supernatant, FaSSIF (native pH 6.5)
Experimental: (§1) Kinetic solubility testing was conducted as follows: About 40-55 mg material was weighed into a 5-mL EP pipe. 4 mL of water/bio-relevant media (SGF, FaSSIF, or FeSSIF) was added into the corresponding sample pipe (drug loading: ˜10 mg/mL calculated as freebase). The pipes were capped tightly and the material was verified to be in contact with the media. The sample vials were placed on a roller and start rolling at 37° C. (rate: 25 r/min). Samples were taken at 1, 2, 4, 24 h. For each time point, 1.0 mL of suspension was transferred into a 2-mL centrifuge tube and the samples were centrifuged. The supernatant was filtered via 0.45 μm PTFE membrane and solubility and pH were measured. An XRPD test on residual solids was conducted.

[4] = Kinetic solubility in SGF; conditions: for Solubility (mg/mL) 1 h / Solubility (mg/mL) 2 h / Solubility (mg/mL) 4 h / Solubility (mg/mL) 24 h: 37° C.; for Solubility (mg/mL) 1 h: drug loading ~10 mg/mL as freebase; for pH 1 h / pH 2 h / pH 4 h / pH 24 h: supernatant, SGF (native pH 1.8)
Experimental: as §1

[5] = Kinetic solubility in water; conditions: 37° C.; for pH of supernatant: water (native pH 7.6); for Final Form of residual solids (XRPD) / Kinetic solubility: water
Experimental: as §1

[6] = Kinetic solubility in FeSSIF; conditions: for Solubility (mg/mL) 1 h / Solubility (mg/mL) 2 h / Solubility (mg/mL) 4 h / Solubility (mg/mL) 24 h: 37° C.; for Solubility (mg/mL) 1 h: drug loading ~10 mg/mL as freebase; for pH 1 h / pH 2 h / pH 4 h / pH 24 h: supernatant
Experimental: as §1

[7] = 1 h, listed as Isethionate Type A
[8] = 2 h, listed as Isethionate Type A
[9] = 4 h, listed as Isethionate Type A
[10] = 24 h, listed as Isethionate Type A

CCS(=O)(=O)N1CCN(c2ccc(Nc3ncc(C(N)=O)c(NC4CC4)n3)cc2)CC1 [Compound I esylate Form I, 4-(cyclopropylamino)-2-(4-(4-(ethylsulfonyl)piperazin-1-yl)phenylamino)pyrimidine-5-carboxamide]
GVS hygroscopicity / moisture uptake ([1]; between 0 and about 60% RH, 25° C.): not subject to moisture uptake | GVS weight uptake ([1]; between about 60% to about 90% RH): RH; about 5 mg | GVS mass lost relative to the input weight ([1]; dried to about 10% RH): about 4.6% | Crystalline form by XRPD post GVS analysis [1]: loss of crystallinity | Deliquescence in GVS ([1]; large water uptake about 60 to about 90% RH): deliquescence did not result | GVS weight change (sudden increase in weight) ([1]; sorption above about 60% RH): ~35%

CCS(=O)(=O)N1CCN(c2ccc(Nc3ncc(C(N)=O)c(NC4CC4)n3)cc2)CC1 [Compound I mesylate Form II, 4-(cyclopropylamino)-2-(4-(4-(ethylsulfonyl)piperazin-1-yl)phenylamino)pyrimidine-5-carboxamide]
GVS water absorbed ([1]; 25° C., first scale up material, listed as Comp. I Mesylate Form II): About 12 mg | GVS total mass lost ([1]; desorption): about 2% | Crystalline form by XRPD post GVS analysis [1]: does not result in a form change | GVS total weight uptake from the starting point ([1]; sorption, increasing RH): ≤ 1.4%

CCS(=O)(=O)N1CCN(c2ccc(Nc3ncc(C(N)=O)c(NC4CC4)n3)cc2)CC1 [Compound I Form I, 4-(cyclopropylamino)-2-(4-(4-(ethylsulfonyl)piperazin-1-yl)phenylamino)pyrimidine-5-carboxamide]
Solubility of Compound I Form I (Observations) ([2]; 25 mg/1 mL Acetone): <5 mg | Solubility of Compound I Form I (Observations) ([2]; 25 mg/1 mL Acetonitrile): <5 mg | Solubility of Compound I Form I (Observations) ([2]; 25 mg/1 mL DCM): about 10 mg | Solubility of Compound I Form I (Observations) ([2]; 25 mg/1 mL EtOAc): <5 mg | Solubility of Compound I Form I (Observations) ([2]; 25 mg/1 mL Heptane): <5 mg | Solubility of Compound I Form I (Observations) ([2]; 25 mg/1 mL IPA): <5 mg | Solubility of Compound I Form I (Observations) ([2]; 25 mg/1 mL MeOH): <5 mg | Solubility of Compound I Form I (Observations) ([2]; 25 mg/1 mL TBME): <5 mg | Solubility of Compound I Form I (Observations) ([2]; 25 mg/1 mL THF): <5 mg | Solubility of Compound I Form I (Observations) ([2]; 25 mg/1 mL Toluene): about 10 mg

CCS(=O)(=O)N1CCN(c2ccc(Nc3ncc(C(N)=O)c(NC4CC4)n3)cc2)CC1 [Compound I esylate Type A, 4-(cyclopropylamino)-2-(4-(4-(ethylsulfonyl)piperazin-1-yl)phenylamino)pyrimidine-5-carboxamide]
Solubility (mg/mL) 1 h ([3]; FaSSIF, 1 h, listed as Esylate Type A): 0.015 mg/mL (≈ 33.7 µM) | Solubility (mg/mL) 2 h ([3]; FaSSIF, 2 h, listed as Esylate Type A): 0.012 mg/mL (≈ 26.9 µM) | Solubility (mg/mL) 4 h ([3]; FaSSIF, 4 h, listed as Esylate Type A): 0.024 mg/mL (≈ 53.9 µM) | Solubility (mg/mL) 24 h ([3]; FaSSIF, 24 h, listed as Esylate Type A): 0.0040 mg/mL (≈ 8.98 µM) | Final Form ([3]; XRPD of residual solids, FaSSIF, 1 h, 2 h, 4 h, 24 h): Freebase Form II | pH 1 h ([3]; 1 h, listed as Esylate Type A): 5.2 | pH 2 h ([3]; 2 h, listed as Esylate Type A): 5.0 | pH 4 h ([3]; 4 h, listed as Esylate Type A): 4.3 | pH 24 h ([3]; 24 h, listed as Esylate Type A): 3.8 | Solubility (mg/mL) 1 h ([4]; SGF, 1 h, listed as Esylate Type A): 0.092 mg/mL (≈ 206 µM) | Solubility (mg/mL) 2 h ([4]; SGF, 2 h, listed as Esylate Type A): 0.10 mg/mL (≈ 224 µM) | Solubility (mg/mL) 4 h ([4]; SGF, 4 h, listed as Esylate Type A): 0.087 mg/mL (≈ 195 µM) | Solubility (mg/mL) 24 h ([4]; SGF, 24 h, listed as Esylate Type A): 0.083 mg/mL (≈ 186 µM) | Final Form ([4]; XRPD of residual solids, SGF, 1 h, 2 h, 4 h, 24 h): HC1 salt Form I | pH 1 h ([4]; 1 h, listed as Esylate Type A): 2.1 | pH 2 h ([4]; 2 h, listed as Esylate Type A): 1.9 | pH 4 h ([4]; 4 h, listed as Esylate Type A): 2.1 | pH 24 h ([4]; 24 h, listed as Esylate Type A): 1.9 | pH of supernatant ([5]; 1 h, listed as Esylate Type A): 2.3 | pH of supernatant ([5]; 2 h, listed as Esylate Type A): 2.0 | pH of supernatant ([5]; 4 h, listed as Esylate Type A): 2.2 | pH of supernatant ([5]; 24 h, listed as Esylate Type A): 2.1 | Final Form of residual solids (XRPD) ([5]; 1 h, 2 h, 4 h, 24 h, listed as Esylate Type A): Freebase Form II | Kinetic solubility ([5]; 1 h, listed as Esylate Type A): 1700 µg/mL | Kinetic solubility ([5]; 2 h, listed as Esylate Type A): 1500 µg/mL | Kinetic solubility ([5]; 4 h, listed as Esylate Type A): 1400 µg/mL | Kinetic solubility ([5]; 24 h, listed as Esylate Type A): 1300 µg/mL | Solubility (mg/mL) 1 h ([6]; 1 h, listed as Esylate Type A): 0.060 mg/mL (≈ 135 µM) | Solubility (mg/mL) 2 h ([6]; 2 h, listed as Esylate Type A): 0.027 mg/mL (≈ 60.6 µM) | Solubility (mg/mL) 4 h ([6]; 4 h, listed as Esylate Type A): 0.014 mg/mL (≈ 31.4 µM) | Solubility (mg/mL) 24 h ([6]; 24 h, listed as Esylate Type A): 0.011 mg/mL (≈ 24.7 µM) | Final Form 2 h, 4 h, 24 h ([6]; XRPD of residual solids, 2 h, 4 h, 24 h): Freebase Form II | pH 1 h ([6]; 1 h, listed as Esylate Type A): 4.8 | pH 2 h ([6]; 2 h, listed as Esylate Type A): 4.7 | pH 4 h ([6]; 4 h, listed as Esylate Type A): 4.7 | pH 24 h ([6]; 24 h, listed as Esylate Type A): 4.4

CCS(=O)(=O)N1CCN(c2ccc(Nc3ncc(C(N)=O)c(NC4CC4)n3)cc2)CC1 [Compound I isethionate Type A, 4-(cyclopropylamino)-2-(4-(4-(ethylsulfonyl)piperazin-1-yl)phenylamino)pyrimidine-5-carboxamide]
Solubility (mg/mL) 1 h ([3]; FaSSIF, 1 h, listed as Isethionate Type A): 0.020 mg/mL | Solubility (mg/mL) 2 h ([3]; FaSSIF, 2 h, listed as Isethionate Type A): 0.026 mg/mL | Solubility (mg/mL) 4 h ([3]; FaSSIF, 4 h, listed as Isethionate Type A): 0.018 mg/mL | Solubility (mg/mL) 24 h ([3]; FaSSIF, 24 h, listed as Isethionate Type A): 0.015 mg/mL | pH 1 h [3, 7]: 3.9 | pH 2 h [3, 8]: 3.9 | pH 4 h [3, 9]: 3.9 | pH 24 h [3, 10]: 3.9 | Solubility (mg/mL) 1 h ([4]; SGF, 1 h, listed as Isethionate Type A): 0.077 mg/mL | Solubility (mg/mL) 2 h ([4]; SGF, 2 h, listed as Isethionate Type A): 0.081 mg/mL | Solubility (mg/mL) 4 h ([4]; SGF, 4 h, listed as Isethionate Type A): 0.073 mg/mL | Solubility (mg/mL) 24 h ([4]; SGF, 24 h, listed as Isethionate Type A): 0.069 mg/mL | pH 1 h [4, 7]: 1.9 | pH 2 h [4, 8]: 1.9 | pH 4 h [4, 9]: 2.1 | pH 24 h [4, 10]: 2.0 | pH of supernatant [5, 7]: 2.1 | pH of supernatant [5, 8]: 2.0 | pH of supernatant [5, 9]: 2.1 | pH of supernatant [5, 10]: 2.1 | Final Form of residual solids (XRPD) ([5]; 1 h, 2 h, 4 h, 24 h, listed as Isethionate Type A): Freebase Form II | Kinetic solubility [5, 7]: 1500 µg/mL | Kinetic solubility [5, 8]: 1300 µg/mL | Kinetic solubility [5, 9]: 1300 µg/mL | Kinetic solubility [5, 10]: 1200 µg/mL | Solubility (mg/mL) 1 h [6, 7]: 0.0058 mg/mL | Solubility (mg/mL) 2 h [6, 8]: 0.0053 mg/mL | Solubility (mg/mL) 4 h [6, 9]: 0.0052 mg/mL | Solubility (mg/mL) 24 h [6, 10]: 0.0054 mg/mL | Final Form ([6]; XRPD of residual solids, 1 h, 2 h, 4 h, 24 h (merged cell), listed as Isethionate Type A): Freebase Form II | pH 1 h [6, 7]: 4.6 | pH 2 h [6, 8]: 4.7 | pH 4 h [6, 9]: 4.7 | pH 24 h [6, 10]: 4.6

— US11713309B2, “Solid forms of Cerdulatinib” (Alexion Pharmaceuticals, Inc., priority 2018, dated 2023)
